Point of comparison: `O=C1c2c(O)cccc2C(=CNc2ccccc2)c2cccc(O)c21`, logP 4.96. Against it:
- O=C1c2c(O)cccc2C(=CNc2ccc(F)cc2)c2cccc(O)c21 — lower, 4.64
- O=C1c2c(O)cccc2C(=CNc2ccc(Br)cc2)c2cccc(O)c21 — higher, 5.19
- COc1ccccc1NC=C1c2cccc(O)c2C(=O)c2c(O)cccc21 — lower, 4.37
- COc1ccc(NC=C2c3cccc(O)c3C(=O)c3c(O)cccc32)cc1 — within 0.2 log units, 4.9
- O=C1c2c(O)cccc2C(=CNc2ccc3c(c2)OCO3)c2cccc(O)c21 — lower, 4.74
- O=C1c2c(O)cccc2C(=CNc2ccc(Cl)cc2)c2cccc(O)c21 — within 0.2 log units, 5.06
- CN(C=C1c2cccc(O)c2C(=O)c2c(O)cccc21)c1ccccc1 — within 0.2 log units, 5.07
- COc1ccc(NC=C2c3cccc(O)c3C(=O)c3c(O)cccc32)cc1OC — lower, 4.37
- O=C1c2c(O)cccc2C(=CNCc2ccccc2)c2cccc(O)c21 — lower, 4.23
- O=C1c2c(O)cccc2C(=CNc2ccc(O)cc2)c2cccc(O)c21 — lower, 4.01
- CNC=C1c2cccc(O)c2C(=O)c2c(O)cccc21 — lower, 3.55
- O=C1c2c(O)cccc2C(=CNc2ccc([N+](=O)[O-])cc2)c2cccc(O)c21 — lower, 4.7

Reference: the SangsterLogP compilation
